Reference: PubChem BioAssay (NCI)
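Exposure lasted 48 hours, with cells grown in 96-well plates and compounds tested at five concentrations. The concentration for full growth arrest is given as TGI.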

Legend:
Experiment in all cases: inhibition of tumour cell growth, NCI panel, 48 h
[1] = tested on: MOLT-4 leukemia
[2] = tested on: NCI/ADR-RES ovarian
[3] = tested on: 786-0 renal
[4] = tested on: NCI-H460 lung
[5] = tested on: MALME-3M melanoma
[6] = tested on: OVCAR-5 ovarian
[7] = tested on: IGROV1 ovarian
[8] = tested on: SNB-19 CNS
[9] = tested on: UACC-257 melanoma
[10] = tested on: HCT-15 colon
[11] = tested on: SK-MEL-5 melanoma
[12] = tested on: UO-31 renal
[13] = tested on: NCI-H23 lung
[14] = tested on: SW-620 colon
[15] = tested on: MCF7 breast
[16] = tested on: U251 CNS
[17] = tested on: NCI-H226 lung
[18] = tested on: RPMI-8226 leukemia
[19] = tested on: SK-MEL-28 melanoma
[20] = tested on: EKVX NSCLC
[21] = tested on: OVCAR-8 ovarian
[22] = tested on: SR leukemia
[23] = tested on: PC-3 prostate
[24] = tested on: SN12C renal
[25] = tested on: HT29 colon
[26] = tested on: COLO 205 colon
[27] = tested on: MDA-N
[28] = tested on: HL-60(TB) leukemia
[29] = tested on: T-47D breast
[30] = tested on: SK-MEL-2 melanoma
[31] = tested on: UACC-62 melanoma
[32] = tested on: SF-295 CNS
[33] = tested on: SF-268 CNS
[34] = tested on: SK-OV-3 ovarian
[35] = tested on: CCRF-CEM leukemia
[36] = tested on: HOP-92 NSCLC
[37] = tested on: KM12 colon
[38] = tested on: A498 renal
[39] = tested on: CAKI-1 renal
[40] = tested on: HCC-2998 colon
[41] = tested on: A549 NSCLC
[42] = tested on: OVCAR-4 ovarian
[43] = tested on: MDA-MB-435
[44] = tested on: M14 melanoma
[45] = tested on: NCI-H522 lung
[46] = tested on: DU-145 prostate
[47] = tested on: HCT-116 colon
[48] = tested on: RXF 393 renal
[49] = tested on: HS 578T breast
[50] = tested on: LOX IMVI melanoma
[51] = tested on: HOP-62 NSCLC
[52] = tested on: ACHN renal
[53] = tested on: BT-549 breast
[54] = tested on: TK-10 renal
[55] = tested on: MDA-MB-231 breast
[56] = tested on: SF-539 CNS
[57] = tested on: OVCAR-3 ovarian
[58] = tested on: K-562 leukemia
[59] = tested on: SNB-75 CNS

Measured: TGI

COC1(OC)N=C(N)C2(C#N)C(c3ccccc3)NC3=C(CCC3)C12C#N (centres undefined)
> 100 µM: [1] | [2] | [3] | [4] | [5] | [6] | [7] | [8] | [9] | [10] | [11] | [12] | [13] | [14] | [15] | [16] | [17] | [18] | [19] | [20] | [21] | [22] | [23] | [24] | [25] | [26] | [27] | [28] | [29] | [30] | [31] | [32] | [33] | [34] | [35] | [36] | [37] | [38] | [39] | [40] | [41] | [42] | [43] | [44] | [45] | [46] | [47] | [48] | [49] | [50] | [51] | [52] | [53] | [54] | [55]

O=C(/C=C/c1ccc(O)c(O)c1)OCC(OC(=O)/C=C/c1ccc(O)c(O)c1)C(=O)O (centres undefined)
> 100 µM: [1] | [2] | [3] | [56] | [4] | [6] | [7] | [8] | [9] | [10] | [57] | [11] | [12] | [13] | [14] | [15] | [16] | [17] | [18] | [19] | [58] | [20] | [21] | [22] | [23] | [24] | [25] | [26] | [27] | [29] | [30] | [31] | [32] | [33] | [34] | [35] | [36] | [37] | [59] | [38] | [39] | [40] | [41] | [42] | [43] | [44] | [45] | [46] | [47] | [48] | [49] | [50] | [51] | [52] | [53] | [54] | [55]

CC(C)C(O)(C(C)C)C(C)C
> 100 µM: [1] | [2] | [3] | [56] | [4] | [5] | [6] | [7] | [8] | [9] | [10] | [57] | [11] | [12] | [13] | [15] | [16] | [17] | [18] | [19] | [58] | [20] | [21] | [22] | [23] | [24] | [25] | [26] | [27] | [28] | [29] | [30] | [31] | [32] | [33] | [34] | [35] | [36] | [37] | [59] | [38] | [39] | [41] | [42] | [43] | [44] | [45] | [46] | [47] | [48] | [49] | [50] | [51] | [52] | [53] | [54] | [55]
